Experiments:
[1] = system: U87 cells; assay: Metabolic activity (Alamar blue) assay and HSA synergy analysis; type: cell-based, human; details: EU 2.5, 25, 200 µM or BCA 1.25, 12.5, 125 µM alone, 24-72 h
Protocol: To evaluate the cytotoxic/antiproliferative potential of BCA and/or EU, the U87 and HMC3 cells were seeded, in triplicate, into 48-well culture plates (4 × 10^4 cells/well). After 24 h, the medium was replaced, and the cells were treated either with the vehicle (ethanol) or with different concentrations of EO single molecules, diluted in ethanol alone ([…]; BCA: 1.25 µM, µM, 125 µM) or in combination (EU 2 µM and BCA 1.25 µM; EU 20 µM and BCA 12.5 µM; and EU 200 µM and BCA 125 µM) in order to evaluate the possible synergistic effects. The final concentration of ethanol in the cell medium was kept lower than 0.1%. Non-treated cells were considered the control condition. Metabolic activity was evaluated using a modified Alamar blue® assay, as previously described. […] After 2 h of incubation at 5% CO2 and 37 °C, the absorbance was read at 570 and 600 nm in a BioTeck (BioTek Instruments, Inc., Winooski, VT, USA). The absorbance results were obtained using the Gen5 program. The metabolic activity was then calculated by the following equation: Metabolicactivity %=A570−A600 oftreated cells/A570−A600 ofcontrol cells×100 All data were analyzed using the software GraphPad Prism v.9.00 (GraphPad Software, San Diego, CA, USA). All in vitro experiments were performed in triplicate, and the acquired results were expressed as means ± SEM. […]

[2] = system: U87 cells; assay: Clonogenic cell survival assay; type: cell-based, human; details: EU 200 µM, BCA 125 µM, alone or in combination, 14 days
Protocol: An evaluation of the antiproliferative effect via clonogenic assay on the tumoral U87 cells was performed using an adapted protocol from the previously described procedure. Briefly, U87 cells (0.8 × 10^3 cells/well) were seeded into 6-well plates and incubated for 24 h. After the incubation, based on the results obtained from the cell viability assay and synergistic score, the cells were treated either with EO single compounds diluted in ethanol alone (EU 200 µM and BCA 125 µM) or in combination for 14 days with the media being changed every 2/3 days. The cells without treatment were considered the control condition. Following the incubation, the cells were washed with PBS, fixed with paraformaldehyde (PFA) and stained with 0.1% crystal violet solution. The number of colonies was counted by microscopy, and the surviving fraction (SF) was calculated as the mean colonies/number of cells seeded.

[3] = system: U87 cells; assay: Cell death assay (Annexin V/PI, flow cytometry); type: cell-based, human; details: EU 200 µM, BCA 125 µM, alone or in combination, 24 h
Protocol: HMC3 and U87 cells were seeded in duplicate into 12-well plates (10 × 10^4 cells/well). After 24 h of incubation at 37 °C and 5% CO2, the medium was replaced, and the cells were treated either with EU (200 µM) or BCA (125 µM), alone and in combination (EU 200 µM + BCA 125 µM). Following the 24 h treatment, the cells were co-stained with AV-APC and PI according to the manufacturer’s protocol (Biolegend, San Diego, CA, USA). Briefly, the cells were resuspended in binding buffer (100 µL) and incubated with AV-APC solution (5 µL) and PI solution (2 µL) for 15 min at room temperature. Then, the cells were diluted in a binding buffer (400 µL). A six-parameter, four-color FACSCalibur flow cytometer (Becton Dickinson, San Jose, CA, USA) was used, and at least 10,000 events were collected by acquisition using CellQuest software (Becton Dickinson, San Jose, CA, USA). The results were analyzed with the Paint-a-Gate software and expressed in percentage (%).

[4] = system: HMC3 cells; assay: Cell cycle analysis (PI/RNase, flow cytometry); type: cell-based, human; details: EU 200 µM, BCA 125 µM, alone or in combination, 24 h
Protocol: (§1) Analysis of the effect of BCA and/or EU on the cell cycle was assessed with flow cytometry using propidium iodide (PI)/RNase solution, according to the manufacturer’s protocol (Immunostep, Salamanca, Spain), as previously described. HMC3 and U87 cells (30 × 10^4 cells/well) were seeded in triplicate into 6-well plates and incubated for 24 h at 37 °C and 5% CO2. Thereafter, the cells were treated either with EU (200 µM) or BCA (125 µM) alone or in combination (EU 200 µM + BCA 125 µM). After 24 h, the cells were detached and fixed in 70% ethanol for 60 min at 4 °C, washed twice with PBS, and then stained with 500 µL of PI/RNase solution. The results were acquired using CellQuest software and expressed as the calculated percentage of the cell population in each cell cycle phase (G0/G1, S and G2/M) according to the PI intensity.

[5] = system: U87 cells; assay: Cell cycle analysis (PI/RNase, flow cytometry); type: cell-based, human; details: BCA 125 µM alone or with EU 200 µM, 24 h
Protocol: as §1

[6] = system: HMC3 cells; assay: Inflammatory cytokines in conditioned media (Luminex/BioPlex); type: cell-based, human; details: EU 200 µM, BCA 125 µM, alone or in combination, 24 h
Protocol: (§2) In order to determine the impact of BCA and/or EU on inflammatory cytokines levels, cytokine expression analyses (L-6, IL-4, IL-8 and TNF-α) were performed using a customized detection panel purchased from Bio-techne (Minneapolis, MN, USA). The cells were seeded, in triplicate, into 24-well culture plates (8 × 10^4 cells/well). After 24 h, the medium was replaced and the cells were treated either with the vehicle (ethanol) or with different concentrations of EO single compounds alone (EU: 2 µM, 20 µM, 200 µM; and BCA: 1.25 µM, 12.5 µM, 125 µM) or in combination (EU 2 µM + BCA 1.25 µM; EU 20 µM + BCA 12.5 µM; and EU 200 µM + BCA 125 µM). The final concentration of ethanol in the cell medium was kept lower than 0.1%. The ethanol 0.1%-treated cells were considered the control condition. After the 24 h treatment, supernatants were collected and centrifuged at 4,000× g for 10 min, and the samples were analyzed with the BioPlex 200 instrument (BioRad®, Hercules, CA, USA) following the manufacturer’s protocol.

[7] = system: U87 cells; assay: as above; type: cell-based, human; details: EU 200 µM, BCA 125 µM, alone or in combination, 24 h
Protocol: as §2

[8] = rat, in vivo, cited from earlier work

## C=C1CC/C=C(\C)CC[C@@H]2[C@@H]1CC2(C)C [BCA, β-Caryophyllene]
[1]
  reduction in metabolic activity, single compounds: No reduction
[2]
  decrease of clonal growth / colony formation with respect to control: −63.8%
[3]
  live (viable) cells, change with respect to control: did not affect
[4]
  effect on cell cycle: no effects
[5]
  decrease in percentage of cells in the S phase: −49.4%
  increase in percentage of cells in the G0/G1 phase: 21.1%
[6]
  IL-4 levels, change vs control: −52.2%
  IL-6 secretion, change vs control: −55.5%
  IL-8 secretion, change vs control: −38.0%
  TNF-α secretion, change vs control: −49.7%
[7]
  IL-4 levels, change vs control: −29.3%
  IL-6 secretion, change vs control: None of the treatments modulated
  IL-8 secretion, change vs control: unaffected
[8]; po
  oral acute LD50: over 5000 mg/kg
[8]
  No Observed Adverse Effect Level (NOAEL) dose: 700 mg/kg

From PMC11720353, “Clove Essential Oil as a Source of Antitumoral Compounds Capable of Crossing the Blood–Brain Barrier: A Focus on the Effects of β-Caryophyllene and Eugenol in a Glioblastoma Cell Line” (International Journal of Molecular Sciences, 2024)
